Measurements reported in patent publication US5162361A, “Method of treating diseases associated with elevated levels of interleukin 1” (priority 1990, dated 1992).
“Also recorded” adds a separate entry of the source.

Assays:
IL-1α mRNA = assay: Northern blot analysis of IL-1α mRNA expression; format: cell-based, rat; conditions: 10 μM pentamidine, LPS, 3 h, FIG. 2
Experimental: Specific transcription of IL-1α mRNA synthesis was assessed by incubating cells with and without 10 μM pentamidine or 1 μM of the corticosteroid, dexamethasone in the presence or absence of lipopolysaccharide (LPS). At the end of a 3 hour incubation period, the cells were lysed and the total cellular RNA was collected, blotted onto a nitrocellulose filter and probed with ^32 P-labeled IL-1α cDNA. […] In contrast, mRNA for IL-1α was not seen in dexamethasone treated cells.
For determination of IL-1 mRNA levels, cells (4×10^6) were cultured with or without pentamidine (10 μM) or dexamethasone (1 μM) in media with 10% FCS in the presence or absence of LPS (1 μg/ml) for 3 hours. Total cellular RNA was isolated by quanidinium-thiocyanate phenolchloroform extraction (P. Chomczynski et al., Anal. Bioch. 162, 156 (1987)). RNA (10 μg) was electrophoresed in 1.2% agarose gels as previously described (H. Leharch et al., Biochemistry 4743 (1977)). […] Hybridizing species were detected by autoradiography at -70° C., using Kodak XAR film with an intensifying screen. The total RNA levels per lane on the gel was assessed by monitoring 28S and 18S, and expression of α-tubulin mRNA. Accumulation of α-tubulin mRNA was determined by probing the same blot with ^32 P labeled 30 mer oligonucleotide (Du Pont).

membrane IL-1 = assay: Effect on membrane IL-1 (mIL-1 bioassay); format: cell-based, rat; conditions: LPS 5 ng/ml, 24 h, FIG. 4
Experimental: Membrane IL-1 was assayed as previously described (E. A. Kurt-Jones et al, Proc. Natl. Acad. Sci. USA, 82, 1204 (1985)). 10^5 cells were cultured in media and 10% FCS with or without pentamidine at varying concentrations and LPS at 5 ng/ml for 24 hours and then fixed to the bottom of the 96 well plates with paraformaldehyde. The IL-1 bioassay was then performed as described in Example 1.

human IL-1 = assay: IL-1 secretion by human alveolar macrophages (enzyme linked immunosorbant assay); format: cell-based; conditions: 10^-5 M
Experimental: (§1) Dose response studies were performed to determine the molar concentration at which pentamidine reduced viability in normal rat macrophages. […] This blockage was shown using an enzyme linked immunosorbant assay with specific antibody to IL-1β.
Four normal healthy human volunteers were lavaged and their pulmonary macrophages cultured in vitro in the presence of 10^-5 M pentamidine and the IL-1 inducer, lipopolysaccharide. Following 24 hours of incubation, the supernatant fluid was collected and stored at -20° C. for IL-1 determination using an enzyme linked immunosorbant assay with specific antibody to human IL-1.

Ia antigen = Ia antigen expression on alveolar macrophages (flow cytometry); format: cell-based, rat
Experimental: ^a Ia antigen expression - Alveolar macrophages were diluted to 1×10^6 cells/ml in RPMI (supplemented as above). Three mls. (3×10^6 cells) were added to sterile teflon vials and treated with pentamidine or dexamethasone for 4 hours at 37° C., 5% CO2, followed by the addition of rat γ IFN at 100 U/ml. Cells were incubated for 18 hours, pelleted, counted and adjusted to 1×10^7 cells/ml in ice cold standard buffer (HBSS, 0.1% Na azide, 1% BSA).
Aliquots of cells (50 μl in quadruplicate) from the various treatment groups were plated to a 96 well round bottom plate (Linbro) and incubated for 45 minutes on ice with 50 μl aliquots of one of the following: monoclonal anti-rat OXS (Sera-lab), monoclonal anti-mouse OX6 (Sera-lab), both at 0.5 μg/5×10^5 cells, or HBSS (control). Cells were washed 3× with standard buffer and incubated for 45 minutes on ice, in the dark, with 50 μl of phycoerythrin-labeled goat anti-mouse IGGI (Fisher Biotech) at 1 μg/5×10^5 cells. Cells were washed 3× with standard buffer, resuspended in 0.4 ml of standard buffer and analyzed via flow cytometry.

[1] = test system: oxazolone induced hypersensitivity; assay: Ear swelling response to oxazolone (delayed-type hypersensitivity); format: in vivo, mice; conditions: pentamidine isethionate (heading), epicutaneous at time of oxazolone challenge, FIG. 5
Experimental: All groups were sensitized with 25 μl of 2.0% oxazolone on day 0 on the shaved dorsal surface of the back. On day 5, each group was treated with 10 μl of pentamidine on each side of the right ear immediately prior to challenge with 10 μl of 0.5% oxazolone on each side of the right ear. The left ear was treated at same time with the oxazolone vehicle (4:1 acetone:olive oil) and in the same manner as the challenged ear. Ear thickness was determined before, 24 and 48 hours after challenge. The concentration of pentamidine for each group was as follows:
Group 1--80 μg/ear pentamidine
Group 2--40 μg/ear pentamidine
Group 3--20 μg/ear pentamidine
Group 4--10 μg/ear pentamidine
Group 5--5 μg/ear pentamidine
Group 6--no treatment (oxazolone positive control)

alveolar macrophage = assay: Alveolar macrophage viability following 24 hour exposure; format: cell-based; conditions: concentrations ≤10^-5 M; normal rat macrophages
Experimental: as §1
Alveolar macrophage viability was assessed by incubating the cells in RPMI 1640 media with 10% fetal calf serum in the presence of pentamidine at the indicated concentrations. Twenty-four hours later the cells were analyzed for viability using ethidium bromide staining. A minimum of 10,000 cells were analyzed by flow cytometry on a FACSCAN analyzer.
These observations have been confirmed using microscopic analysis via trypan blue dye exclusion.

tumor necrosis factor = assay: Tumor necrosis factor secretion by rat macrophages; format: cell-based; conditions: pentamidine 10^-5 M, rat macrophages (control 82 units/ml)
Experimental: (§2) It has also been observed that pentamidine (10^-5 M) blocks the secretion of tumor necrosis factor in rat macrophages (42 units/ml - pentamidine vs. 82 units/ml - control), as well as tumor necrosis factor and IL-6 in human macrophages, where at a concentration of 10^-5 M pentamidine, tumor necrosis factor and IL-6 secretion are suppressed >50%. These additional cytokines are also very influential mediators in inflammatory diseases.
In vitro studies were performed by taking alveolar macrophages from normal healthy rat lungs and culturing them in the presence of an imidazoline with the inducer lipopolysaccharide for 24 hours. The standard bioassay for IL-1 was performed (see above).

IL-6 = IL-6 secretion by human macrophages; format: cell-based; conditions: Macrophage, 10^-5 M, read-out: Suppression of IL-6 secretion
Description: as §2

N=C(N)c1ccc(OCCCCCOc2ccc(C(=N)N)cc2)cc1 [Pentamidine, 1,5-bis(4-amidinophenoxy)pentane]
IL-1α mRNA expression (IL-1α mRNA): lack of effect on mRNA expression; also recorded: equal amounts of L-1α mRNA | Amount of bioactive membrane IL-1 (mIL-1) (membrane IL-1): increased in a dose related manner | IL-1 (IL-1β) secretion by human macrophages (human IL-1; ELISA with specific antibody to IL-1β, result in words): blocks IL-1 secretion; also recorded: decreased IL-1β release by human macrophages | inhibition at 10 µM (human IL-1; Macrophage, 24 h, cumulative over four human subjects, vs. untreated macrophages of same individual, read-out: Suppression in the amount of IL-1 secreted): 62.1% | Ia Antigen Expression (MFI) (Ia antigen; Pentamidine 10^-5 M (control 459)): 464 MFI | Mean concentration of Ia molecules on Ia positive cells (Ia antigen; result in words): nor did it influence the mean concentration of Ia molecules on Ia positive cells | Hypersensitivity response as measured by ear swelling [1]: statistically significant (p<0.001) reduction in the hypersensitivity response | Loss in cell viability (alveolar macrophage): No significant loss in cell viability | Tumor necrosis factor secretion (tumor necrosis factor): 42 units/ml | inhibition at 10 µM (IL-6): > 50%
